{
  "source": "the Kinase Knowledgebase extract (Sharma et al. 2016)",
  "data": [
    {"biological_target": "MAPK14 (human) (UniProt Q16539)", "sequence (Q16539 whole entry, looked up)": "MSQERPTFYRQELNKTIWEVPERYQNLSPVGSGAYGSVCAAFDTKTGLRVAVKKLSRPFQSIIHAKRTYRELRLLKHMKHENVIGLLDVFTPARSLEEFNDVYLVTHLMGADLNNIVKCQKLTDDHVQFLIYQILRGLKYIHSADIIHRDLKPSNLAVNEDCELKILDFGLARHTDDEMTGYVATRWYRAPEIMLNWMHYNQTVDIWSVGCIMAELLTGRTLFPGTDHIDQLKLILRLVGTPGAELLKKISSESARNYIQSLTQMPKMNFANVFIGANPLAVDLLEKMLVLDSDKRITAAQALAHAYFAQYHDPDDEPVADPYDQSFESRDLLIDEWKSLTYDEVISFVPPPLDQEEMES", "assay": "Assessment of MAPK14 Kinase Activity", "units": {"IC50": "nM"}, "values": [
      {"smiles": "Cc1nnc(-c2ccc(-c3cc(NC(=O)Nc4sc(C(C)(C)C)cc4C(=O)N4CCN(C)C(=O)C4(C)C)ccc3C)cn2)o1", "IC50": "< 100"},
      {"smiles": "Cc1ccc(NC(=O)Nc2sc(C(C)(C)C)cc2C(=O)N2CCN(C)C(=O)C2(C)C)cc1-c1ccc(C(C)(C)O)nc1", "IC50": "< 100"},
      {"smiles": "CC(C)(C)c1cc(C(=O)N2CCNC(=O)C2(C)C)c(NC(=O)Nc2cccc(-c3ccncc3)c2)s1", "IC50": "< 100"},
      {"smiles": "Cc1ccc(NC(=O)Nc2sc3c(c2C(=O)N2CCN(C)C(=O)C2(C)C)CCOC3)cc1-c1ccc(CN2CCOCC2)nc1", "IC50": "100 to 1000"},
      {"smiles": "Cc1ccc(NC(=O)Nc2sc(C(C)(C)C)cc2C(=O)N2CCNC(=O)C2(C)C)cc1-c1cccnc1", "IC50": "< 100"},
      {"smiles": "CCNC(=O)c1ccc(-c2cc(NC(=O)Nc3cn(C(C)(C)C)nc3C(=O)N3CCN(C)C(=O)C3(C)C)ccc2C)cn1", "IC50": "< 100"},
      {"smiles": "Cc1ccc(NC(=O)Nc2cn(C(C)(C)C)nc2C(=O)N2CCNC(=O)C2(C)C)cc1-c1ccc(CN2CCOCC2)nc1", "IC50": "< 100"},
      {"smiles": "Cc1ccc(NC(=O)Nc2sc(C(C)(C)C)nc2C(=O)N2CCN(C)C(=O)C2(C)C)cc1-c1ccc(CN2CCOCC2)cn1", "IC50": "< 100"},
      {"smiles": "CCNC(=O)c1ccc(-c2cc(NC(=O)Nc3cc(C(C)(C)C)oc3C(=O)N3CCN(C)C(=O)C3(C)C)ccc2C)cn1", "IC50": "< 100"},
      {"smiles": "Cc1ccc(NC(=O)Nc2sc(C(C)(C)C)cc2C(=O)N2CCN(CCN(C)C)C(=O)C2(C)C)cc1-c1cccnc1", "IC50": "< 100"},
      {"smiles": "CCN(CC)Cc1ccc(-c2cc(NC(=O)Nc3sc(C(C)(C)C)cc3C(=O)N3CCN(C)C(=O)C3(C)C)ccc2C)cn1", "IC50": "< 100"},
      {"smiles": "Cc1ccc(NC(=O)Nc2sc(C(C)(C)C)cc2C(=O)N2CCNC(=O)C2(C)C)cc1C#Cc1ccccn1", "IC50": "< 100"},
      {"smiles": "CCc1ccc(-c2cc(NC(=O)Nc3sc(C(C)(C)C)cc3C(=O)N3CCNC(=O)C3(C)C)ccc2C)cn1", "IC50": "< 100"},
      {"smiles": "CCc1ccc(-c2cc(NC(=O)Nc3cc(C(C)(C)C)sc3C(=O)N3CCN(C)C(=O)C3(C)C)ccc2C)cn1", "IC50": "< 100"},
      {"smiles": "Cc1ccc(NC(=O)Nc2cc(C(C)(C)C)oc2C(=O)N2CCNC(=O)C2(C)C)cc1-c1ccc(OCCN(C)C)nc1", "IC50": "< 100"},
      {"smiles": "Cc1ccc(NC(=O)Nc2sc(C(C)(C)C)cc2C(=O)N2CCN(C)C(=O)C2(C)C)cc1-c1ccc(C[N+]2([O-])CCOCC2)nc1", "IC50": "< 100"},
      {"smiles": "CCNC(=O)c1ccc(-c2cc(NC(=O)Nc3sc(C(C)(C)C)nc3C(=O)N3CCN(C)C(=O)C3(C)C)ccc2C)cn1", "IC50": "< 100"},
      {"smiles": "CN1CCN(CCCOc2ccc(-c3cccc(NC(=O)Nc4sc(C(C)(C)C)cc4C(=O)N4CCNC(=O)C4(C)C)c3)cn2)CC1", "IC50": "< 100"},
      {"smiles": "CCOc1ccc(-c2cc(NC(=O)Nc3sc(C(C)(C)C)cc3C(=O)N3CCN(C)C(=O)C3(C)C)ccc2C)cn1", "IC50": "< 100"},
      {"smiles": "Cc1ncc(NC(=O)Nc2sc(C(C)(C)C)cc2C(=O)N2CCNC(=O)C2(C)C)cc1-c1ccc(N2CCOCC2)nc1", "IC50": "< 100"},
      {"smiles": "COc1ccc(-c2cc(NC(=O)Nc3cc(C(C)(C)C)sc3C(=O)N3CCN(C)C(=O)C3(C)C)ccc2C)cn1", "IC50": "< 100"},
      {"smiles": "COCCOCC#Cc1cc(NC(=O)Nc2sc(C(C)(C)C)cc2C(=O)N2CCNC(=O)C2(C)C)ccc1C", "IC50": "< 100"},
      {"smiles": "Cc1ccc(NC(=O)Nc2sc(C(C)(C)C)cc2C(=O)N2CCN(C)C(=O)C2(C)C)cc1-c1ccc(CN2CCOCC2)nc1", "IC50": "< 100"},
      {"smiles": "CCc1ccc(-c2cc(NC(=O)Nc3cn(C(C)(C)C)nc3C(=O)N3CCN(C)C(=O)C3(C)C)ccc2C)cn1", "IC50": "< 100"},
      {"smiles": "Cc1ccc(NC(=O)Nc2oc(C(C)(C)C)cc2C(=O)N2CCNC(=O)C2(C)C)cc1-c1ccncc1", "IC50": "< 100"},
      {"smiles": "Cc1ccc(NC(=O)Nc2sc(C(C)(C)C)cc2C(=O)N2CCNC(=O)C2(C)C)cc1C#CCN1CCOCC1", "IC50": "< 100"},
      {"smiles": "Cc1ccc(NC(=O)Nc2sc(C(C)(C)C)cc2C(=O)N2CCNC(=O)C2(C)C)cc1-c1ccc(N2CCCCC2)nc1", "IC50": "< 100"},
      {"smiles": "Cc1ccc(NC(=O)Nc2sc(C(C)(C)C)cc2C(=O)N2CCN(C)C(=O)C2(C)C)cc1-c1ccc(N2CCN(C)CC2)nc1", "IC50": "< 100"},
      {"smiles": "CN(C)CCOc1ccc(-c2cccc(NC(=O)Nc3sc(C(C)(C)C)cc3C(=O)N3CCNC(=O)C3(C)C)c2)cn1", "IC50": "< 100"},
      {"smiles": "CCc1ccc(-c2cc(NC(=O)Nc3sc(C(C)(C)C)cc3C(=O)N3CCN(C)C(=O)C3(C)C)ccc2C)cn1", "IC50": "< 100"},
      {"smiles": "Cc1ccc(NC(=O)Nc2sc(C(C)(C)C)cc2C(=O)N2CCNC(=O)C2(C)C)cc1-c1ccc(C(C)O)nc1", "note": "(stereo not drawn)", "IC50": "< 100"},
      {"smiles": "Cc1ccc(-c2cc(NC(=O)Nc3sc(C(C)(C)C)cc3C(=O)N3CCNC(=O)C3(C)C)ccc2C)nn1", "IC50": "< 100"},
      {"smiles": "Cc1ccc(NC(=O)Nc2sc(C(C)(C)C)cc2C(=O)N2CCNC(=O)C2(C)C)cc1-c1ccc(OCCCN(C)C)nc1", "IC50": "< 100"},
      {"smiles": "CC(=O)N1CCN(C(=O)c2cc(C(C)(C)C)sc2NC(=O)Nc2ccc(C)c(-c3cccnc3)c2)CC1", "IC50": "< 100"},
      {"smiles": "Cc1ccc(NC(=O)Nc2sc(C(C)(C)C)cc2C(=O)N2CCNC(=O)C2(C)C)cc1-c1ccc(OCCN2CCCCC2)nc1", "IC50": "< 100"},
      {"smiles": "COc1ccc(NC(=O)Nc2sc(C(C)(C)C)cc2C(=O)N2CCNC(=O)C2(C)C)cc1-c1ccncc1", "IC50": "< 100"},
      {"smiles": "CC(C)(C)c1cc(C(=O)N2CCNC(=O)C2(C)C)c(NC(=O)Nc2cccc(-c3ccc(OCCN4CCOCC4)nc3)c2)s1", "IC50": "< 100"},
      {"smiles": "CC(C)(C)c1cc(C(=O)N2CCNC(=O)C2(C)C)c(NC(=O)Nc2cccc(-c3ccc(OCCCc4ccccn4)nc3)c2)s1", "IC50": "< 100"}
    ]}
  ]
}
